Source: patent US10676518B1, “A4B2 nicotinic acetylcholine receptors with reduced or increased nicotine sensitivity and transgenic mouse model for the same” (University of Puerto Rico, priority 2015, dated 2020)
Marks after values point to notes of the source that are not given here.

Columns and labels:
Assay type in all cases: cell-based, Rattus norvegicus
[1] = test system: α4β2 nAChRs expressed in Xenopus laevis oocytes; assay: Two-electrode voltage clamp, ACh-induced currents in oocytes; design: key to ACh EC50 (μM) / ACh Hill Coef. / ACh Peak Current (nA): (n/f) non-functional; (n/e) no-expression; conditions: ACh as agonist; for ACh Peak Current (nA) / ACh EC50 (μM): mean ± SEM of 6-17 oocytes; for ACh-induced macroscopic peak current compared with WT / receptor function with ACh: in words; for ACh EC50 (μM): −70 mV
Description: (§1) Single point mutations were prepared using the Quickchange™ Site-Directed Mutagenesis Kit (Stratagene, La Jolla, Calif.). The template used for the PCR reaction was the pGEMHE vector with Rattus norvegicus cDNA coding for the α4 neuronal nAChR subunit. DNA was purified using a QIAprep spin miniprep kit (Quiagen, Germantown, Md.) and then sequenced to confirm the incorporation of each mutation. A total of 11 residues in the cytoplasmic loop of the α4 subunit were chosen to be mutated: S364, T417, S438, S469, S471, S490, S504, S516, T536, Y576, and S589. Each residue was mutated to alanine (A) and aspartic acid (D).
(§2) Each subunit encoding mRNA was synthesized in vitro from linearized pGEMHE plasmid templates of Rattus norvegicus cDNA coding for α4 and β2 nAChR subunits using the mMessage mMachine RNA transcription kit (Ambion, Austin, Tex.). mRNA mixtures of α4 and β2 subunits were prepared at 2 μg:3 μg ratio, and 32.2 nL of this mixture was microinjected into each oocyte. The mRNA mixture was microinjected, using a displacement injector (Drummond Instruments, Broomhall, Pa.), into stage V and VI oocytes that had been extracted, incubated in collagenase Type 1A (Sigma, St. Louis, Mo.), and defolliculated by manual dissection. The injected oocytes were incubated at 19° C. for 3-4 days in ND-96 medium supplemented with albumin, gentamicin, tetracycline, and theophyline. Electrophysiological experiments were performed after the third or fourth day of mRNA injection.
(§3) Oocytes injected with the mRNA transcripts of α4 and β2 subunits were characterized using a two-electrode voltage clamp. ACh- and nicotine-induced currents were recorded at 20° C., 3-4 days after mRNA injection, with a GeneClamp 500B Amplifier (Axon Instruments, Foster City, Calif.). […] All the reagents used were purchased from Sigma-Aldrich, Co. (St. Louis, Mo.). For dose-response curves, each oocyte was held at a membrane potential of −70 mV. Membrane currents were digitized using the DigiData 1322A interface (Axon Instruments, Foster City, Calif.), filtered at 2 kHz during recording. The Clampex 10.0 software running on a Pentium 4-based computer was used for data acquisition. Data analysis was via Prism 3.0 (Graphpad Software, San Diego, Calif.). Dose-response data for the α4β2 combination were collected using seven ACh doses (0.1, 1, 3, 10, 30, 100, and a seventh concentration ranging from 300 to 1000 μM depending on the mutant) and seven nicotine concentrations (0.1, 1, 3, 10, 30, 100, 300 μM). The data were fitted using a one-component sigmoidal dose-response equation, Y=I/ImaxBottom+(I/ImaxTop−I/ImaxBottom)/(1+10^((Log EC50−X)×HillSlope)) where X is the logarithm of concentration and Y is the response.
Target sequence in this assay (P09483 31-249 limits assumed): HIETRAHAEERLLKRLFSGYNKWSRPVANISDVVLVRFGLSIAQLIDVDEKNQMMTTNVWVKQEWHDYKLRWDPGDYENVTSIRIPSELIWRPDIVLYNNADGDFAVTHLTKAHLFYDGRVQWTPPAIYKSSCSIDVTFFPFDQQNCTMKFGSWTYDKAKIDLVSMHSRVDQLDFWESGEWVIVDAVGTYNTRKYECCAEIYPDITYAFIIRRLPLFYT
Target sequence in this assay (P12390 25-237 limits assumed, further chain): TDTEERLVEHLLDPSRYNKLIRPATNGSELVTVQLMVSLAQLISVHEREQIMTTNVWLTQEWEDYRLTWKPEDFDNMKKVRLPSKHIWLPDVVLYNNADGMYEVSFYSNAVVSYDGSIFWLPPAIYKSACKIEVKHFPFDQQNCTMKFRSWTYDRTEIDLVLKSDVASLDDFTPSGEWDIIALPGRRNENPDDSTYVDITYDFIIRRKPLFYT

[2] = test system: α4β2 nAChRs expressed in Xenopus laevis oocytes; assay: Two-electrode voltage clamp, nicotine-induced currents in oocytes; design: key to Nicotine EC50 (μM) / Nicotine Hill Coef. / Nicotine Peak Current (nA): (n/f) non-functional; (n/e) no-expression; key to Nicotine sensitivity mark of the mutation: Mutations highlighted in green (‡) exhibit hypersensitivity to nicotine; those in red (¶) exhibit agonist selectivity evidenced by their remarkable reductions in sensitivity to nicotine; conditions: for Nicotine Hill Coef. / Nicotine Peak Current (nA) / receptor function with nicotine / Nicotine EC50 (μM) / nicotine-induced macroscopic peak current compared with WT: nicotine as agonist; for Nicotine Peak Current (nA) / Nicotine EC50 (μM): mean ± SEM of 6-17 oocytes; for receptor function with nicotine / nicotine-induced macroscopic peak current compared with WT: in words; for Nicotine EC50 (μM): −70 mV; for Nicotine sensitivity mark of the mutation: footnote mark beside the mutation
Description: as §1, §2, §3
Target sequence in this assay (P09483 31-333 limits assumed): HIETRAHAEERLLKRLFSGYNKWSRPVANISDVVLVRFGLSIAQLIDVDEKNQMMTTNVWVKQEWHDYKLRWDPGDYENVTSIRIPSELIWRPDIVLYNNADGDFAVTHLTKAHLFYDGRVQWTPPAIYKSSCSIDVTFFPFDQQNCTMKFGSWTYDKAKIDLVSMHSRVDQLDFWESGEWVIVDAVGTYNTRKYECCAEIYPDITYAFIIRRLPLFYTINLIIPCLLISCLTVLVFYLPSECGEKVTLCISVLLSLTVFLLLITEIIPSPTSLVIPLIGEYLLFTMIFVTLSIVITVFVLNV
Target sequence in this assay (P12390 25-500, further chain): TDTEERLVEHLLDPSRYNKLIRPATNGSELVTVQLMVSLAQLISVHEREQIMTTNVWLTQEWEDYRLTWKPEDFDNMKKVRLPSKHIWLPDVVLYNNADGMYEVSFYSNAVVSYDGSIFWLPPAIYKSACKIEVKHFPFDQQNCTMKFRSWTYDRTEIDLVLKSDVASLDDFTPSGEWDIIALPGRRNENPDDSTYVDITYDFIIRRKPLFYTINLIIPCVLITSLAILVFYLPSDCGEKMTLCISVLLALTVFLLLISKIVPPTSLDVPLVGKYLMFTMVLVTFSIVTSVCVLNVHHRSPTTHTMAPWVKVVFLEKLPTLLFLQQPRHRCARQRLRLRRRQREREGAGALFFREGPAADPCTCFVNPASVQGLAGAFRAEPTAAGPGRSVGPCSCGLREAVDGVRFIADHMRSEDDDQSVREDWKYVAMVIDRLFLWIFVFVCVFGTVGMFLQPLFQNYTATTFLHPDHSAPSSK

[3] = test system: α4β2 nAChRs expressed in Xenopus laevis oocytes; assay: Efficacy of agonist A-85380 versus ACh for subunit stoichiometry determination; conditions: A-85380 100 nM vs ACh 300 μM; α4β2 mRNA 2:3 ratio
Description: To determine whether the α4β2 mutations α4S469Aβ2, α4S471Dβ2, α4T536Aβ2 and α4Y576Aβ2 expressed in Xenopus laevis oocytes assemble in the α4(2):β2(3) or the α4(3):β2(2) stoichiometry, we estimated the efficacy of agonist A-85380 when compared to ACh 300 μM. […] The efficacy of A-85380 in WTα4(2):β2(3) and […] was determined by comparing the macroscopic current elicited by A-85380 100 nM and ACh 300 μM in oocytes microinjected α4β2 mRNA in 1:10 and 10:1 ratios, respectively. The efficacy of A-85380 in α4S469Aβ2, α4S471Dβ2, α4T536Aβ2 and α4Y576Aβ2 was determined by comparing the macroscopic current elicited by A-85380 100 nM and ACh 300 μM in oocytes microinjected α4β2 mRNA in 2:3 ratio. The changes in stoichiometry in these four mutants were assessed by comparing the efficacy of A-85380 in each mutant compared to WTα4(2):β2(3) and WTα4(3):β2(2).

Substance | ACh Hill Coef. [1] | ACh Peak Current (nA) [1] | Nicotine Hill Coef. [2] | Nicotine Peak Current (nA) [2] | Nicotine Peak Current (nA) ([2]; listed as WT) | ACh-induced macroscopic peak current compared with WT [1] | receptor function with nicotine [2] | Nicotine EC50 (μM) [2] | Nicotine sensitivity mark of the mutation [2] | nicotine-induced macroscopic peak current compared with WT [2] | Nicotine Peak Current (nA) ([2]; listed as α4S438D) | Nicotine Peak Current (nA) ([2]; listed as α4S469A) | efficacy of A-85380 compared with WT injected 2:3 or 1:10 ratio [3] | receptor function with ACh [1] | ACh EC50 (μM) [1]
WT α4β2: wild-type rat α4β2 neuronal nicotinic acetylcholine receptor expressed in Xenopus laevis oocytes [reference compound] | 1.00 | 2110 ± 243 nA | 1.80 | 387 ± 66 nA | 387±66 | – | – | – | – | – | – | – | – | – | –
α4S438Aβ2: rat α4β2 nAChR, α4 subunit point mutation S438A, CKII putative phosphorylation site | 0.49 | 97 ± 29 nA | n/f | n/f | – | significant decreases in the macroscopic peak currents | non-functional | n/f | – | – | – | – | – | – | –
α4S438Dβ2: rat α4β2 nAChR, α4 subunit point mutation S438D, CKII putative phosphorylation site | 0.68 | 1938 ± 367 nA | 1.29 | 2156 ± 475 nA | – | no change in the macroscopic peak current | – | – | α4S438Dβ2‡ | significant increases in the macroscopic peak currents | 2156±475 | – | – | – | –
α4S469Aβ2: rat α4β2 nAChR, α4 subunit point mutation S469A, CKII putative phosphorylation site | 0.87 | 2222 ± 413 nA | 1.84 | 1552 ± 313 nA | – | no change in the macroscopic peak current | – | – | α4S469Aβ2‡ | significant increases in the macroscopic peak currents | – | 1552±313 | no significant difference | – | –
α4S469Dβ2: rat α4β2 nAChR, α4 subunit point mutation S469D, CKII putative phosphorylation site | n/f | n/f | n/f | n/f | – | – | non-functional | n/f | – | – | – | – | – | non-functional | n/f
α4S471Aβ2: rat α4β2 nAChR, α4 subunit point mutation S471A, PKA putative phosphorylation site | n/f | n/f | n/f | n/f | – | – | – | n/f | – | – | – | – | – | non-functional | n/f
α4S471Dβ2: rat α4β2 nAChR, α4 subunit point mutation S471D, PKA putative phosphorylation site | 1.01 | 1039 ± 139 nA | 2.00 | 142 ± 313 nA | – | significant decrease in macroscopic peak current | functional activation by nicotine | – | – | significant decrease in the macroscopic peak current | – | – | no significant difference | – | –
